This is an account of results in PubChem BioAssay (NCI).

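Exposure lasted 48 hours, with cells grown in 96-well plates and compounds tested at five concentrations. TGI denotes the concentration required for complete inhibition of growth.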

Test systems include EKVX NSCLC; HCT-116 colon; HCT-15 colon; HT29 colon; KM12 colon; NCI-H23 lung; NCI-H460 lung; OVCAR-4 ovarian; OVCAR-5 ovarian; SF-268 CNS; U251 CNS.
Holding throughout (assay): NCI tumour cell line growth inhibition, 48 h

`COc1ccc2c(C(=O)c3cn(CCN4CCOCC4)c4ccccc34)cccc2c1`: the TGI in the assay with EKVX NSCLC, with HCT-116 colon, in the assay with HCT-15 colon, in the assay with HT29 colon, in the assay on KM12 colon and in the assay with NCI-H23 lung was greater than 100 µM throughout. Besides, the TGI in the assay on NCI-H460 lung, in the assay on OVCAR-4 ovarian, in the assay on OVCAR-5 ovarian, in the assay with SF-268 CNS and in the assay with U251 CNS was greater than 100 µM throughout.

Turning to `COc1ccc(C2=C3SC=c4ccccc4=C3ON=C2c2ccccc2)cc1`, the TGI with EKVX NSCLC, in the assay on HCT-116 colon, in the assay with HCT-15 colon, in the assay with HT29 colon, in the assay with KM12 colon and with NCI-H23 lung was greater than 100 µM each time. For the same compound, the TGI with NCI-H460 lung, in the assay on OVCAR-4 ovarian, in the assay on OVCAR-5 ovarian, in the assay with SF-268 CNS and with U251 CNS was greater than 100 µM throughout.

For the compound `CC(=O)O[C@H]1CC[C@@]2(C)C(=CC[C@H]3[C@@H]4C/C(=C\c5ccc(N(C)C)cc5)[C@H](OC(C)=O)[C@@]4(C)CC[C@@H]32)C1`, the TGI in the assay on EKVX NSCLC is 36.7 µM; with HCT-116 colon, 25.3 µM; in the assay with HCT-15 colon, 31.9 µM; with HT29 colon, 34.2 µM; in the assay with KM12 colon it was greater than 100 µM; in the assay with NCI-H23 lung, 30.9 µM. Besides, the TGI came out at 18.2 µM with NCI-H460 lung; 69 µM in the assay with OVCAR-4 ovarian; 52.8 µM in the assay with OVCAR-5 ovarian; 26.7 µM with SF-268 CNS; 19.4 µM in the assay on U251 CNS.

`Oc1cn(-c2ccc(Cl)cc2)nc1-c1n[nH]c(=S)n1-c1ccccc1`: the TGI was 82.1 µM in the assay with EKVX NSCLC; 18.7 µM with HCT-116 colon; 14.9 µM in the assay on HCT-15 colon; 44 µM in the assay on HT29 colon; 31.8 µM in the assay on KM12 colon; 23.9 µM in the assay with NCI-H23 lung. Further, the TGI with NCI-H460 lung is 59.4 µM; in the assay with OVCAR-4 ovarian, greater than 100 µM; in the assay on OVCAR-5 ovarian, 46.2 µM; in the assay on SF-268 CNS, 64.2 µM; in the assay on U251 CNS, 30.4 µM.

In the case of `COc1ccc(-c2nc3ncccn3c2-c2ccc(SC)cc2)cc1`, the TGI is 5.15 µM with HCT-116 colon; greater than 100 µM in the assay with HCT-15 colon; 28.1 µM with HT29 colon; 13.3 µM with KM12 colon; greater than 100 µM in the assay with NCI-H23 lung; 7.87 µM with NCI-H460 lung. Also, the TGI in the assay with OVCAR-4 ovarian is greater than 100 µM; with OVCAR-5 ovarian, 7.06 µM; in the assay on SF-268 CNS, 3.15 µM; with U251 CNS, 29 µM.

`CC(=O)NNc1nc(-c2ccc([N+](=O)[O-])cc2)c(C#N)c(=O)n1C`: the TGI in the assay on EKVX NSCLC is greater than 100 µM; with HCT-116 colon, 94.2 µM; with HCT-15 colon it was greater than 100 µM; in the assay on HT29 colon, greater than 100 µM; in the assay on KM12 colon, greater than 100 µM; in the assay with NCI-H23 lung, greater than 100 µM. Also, the TGI in the assay on NCI-H460 lung was greater than 100 µM; in the assay on OVCAR-4 ovarian it was 52.7 µM; in the assay on OVCAR-5 ovarian, 77 µM; with SF-268 CNS, greater than 100 µM; with U251 CNS it was 50 µM.

As for `CN(C)C(=O)/C=C/c1c[nH]c(=O)[nH]c1=O`, the TGI with EKVX NSCLC was greater than 281 µM; with HCT-116 colon it was greater than 500 µM; in the assay on HCT-15 colon, greater than 500 µM; in the assay on HT29 colon, greater than 500 µM; with KM12 colon, greater than 500 µM; in the assay on NCI-H23 lung it was greater than 500 µM. Also, the TGI with NCI-H460 lung, in the assay on OVCAR-4 ovarian, in the assay on OVCAR-5 ovarian, in the assay on SF-268 CNS and with U251 CNS was greater than 500 µM in each case.

Take `Cc1c2cccc-2c(OCCO)cc2c3ccccc3n(C)c12`: the TGI was 8.69 µM in the assay on EKVX NSCLC; 12.8 µM in the assay on HCT-116 colon; 45 µM in the assay on HCT-15 colon; 18.3 µM in the assay on HT29 colon; 12.9 µM in the assay with KM12 colon; greater than 100 µM with NCI-H23 lung. The TGI is 18.3 µM with NCI-H460 lung; 15.1 µM in the assay on OVCAR-4 ovarian; 16.1 µM with OVCAR-5 ovarian; 25.6 µM with SF-268 CNS; 5.84 µM in the assay with U251 CNS.

On to `C[C@H]1C(=O)O[C@@H]2CCN3CC=C(COC(=O)[C@](C)(O)[C@@]1(C)O)[C@H]23`, for which the TGI in the assay with EKVX NSCLC, in the assay with HCT-116 colon, in the assay on HCT-15 colon, in the assay on HT29 colon, in the assay on KM12 colon and with NCI-H23 lung was greater than 100 µM each time. For the same compound, the TGI in the assay on OVCAR-4 ovarian, with OVCAR-5 ovarian, with SF-268 CNS and with U251 CNS was greater than 100 µM throughout.

Consider `COc1cc(/C=C/C(=O)Oc2ccc(NC(C)=O)cc2)ccc1C(=O)O/C=C/c1ccccc1`, for which the TGI with EKVX NSCLC, with HCT-116 colon, in the assay with HCT-15 colon, in the assay with HT29 colon, in the assay on KM12 colon and in the assay on NCI-H23 lung was greater than 100 µM each time. For the same compound, the TGI in the assay with NCI-H460 lung, with OVCAR-4 ovarian, with OVCAR-5 ovarian, with SF-268 CNS and in the assay on U251 CNS was greater than 100 µM throughout.

For the compound `COc1ccc2c(c1)CCCN2CCCCCCCCCCN(CCC(C)C)CCC(C)C`, the TGI was 20 µM in the assay with EKVX NSCLC; 23.4 µM with HCT-15 colon; 18 µM with HT29 colon; 17.4 µM in the assay on KM12 colon; 12.7 µM with NCI-H23 lung; 24.3 µM in the assay on NCI-H460 lung. The TGI was determined as 19.4 µM with OVCAR-4 ovarian, 28.4 µM in the assay with OVCAR-5 ovarian, 25.6 µM in the assay on SF-268 CNS and 26.6 µM with U251 CNS.

For `Nc1n[nH]c(=O)c2c1c(I)cn2C1OC(CO)C(O)C1O` (stereo not drawn), the TGI is 7.85 µM in the assay on EKVX NSCLC; greater than 100 µM in the assay on HCT-116 colon; 3.05 µM in the assay on HCT-15 colon; 67.8 µM in the assay with HT29 colon; greater than 100 µM in the assay with KM12 colon; 1.96 µM with NCI-H23 lung. The TGI with NCI-H460 lung amounted to 14.1 µM; in the assay with OVCAR-4 ovarian it was 14.4 µM; in the assay with SF-268 CNS it was 25.7 µM; in the assay on U251 CNS it was 4.19 µM.

For `COc1ccc(/C(Cl)=C(\C=O)c2ccc(OC)cc2)cc1`, the TGI in the assay on EKVX NSCLC, with HCT-116 colon, with HCT-15 colon, in the assay on HT29 colon, in the assay on NCI-H23 lung and in the assay with NCI-H460 lung was greater than 100 µM in each case. Besides, the TGI in the assay on OVCAR-4 ovarian, in the assay with OVCAR-5 ovarian, in the assay with SF-268 CNS and in the assay with U251 CNS was greater than 100 µM in each case.
